# Measurements: patent US20250313547A1, “CEREBLON LIGANDS AND BIFUNCTIONAL COMPOUNDS COMPRISING THE SAME” (Arvinas Operations, Inc., priority 2017, published 2025)
# Test system: androgen receptor (AR)
# Assay: AR ELISA assay (androgen receptor degradation)
# Assay type: cell-based
# Conditions: LNCaP and/or VCaP cells, 5 hours drug treatment; for AR Dmax: % degraded
# Description: 5. AR ELISA Assay Protocol
# Compounds were evaluated in this assay in LNCaP and/or VCaP cells utilizing similar protocols. The protocols used with VCaP cells are described below. The androgen receptor ELISA assay was performed using PathScan AR Sandwich ELISA (Cell Signaling Catalog #12850) according to the following assay steps:
# VCaP cells were seeded at 40,000 cells/well at a volume of 100 µL/well in VCaP assay medium [Phenol red free RPMI (Gibco Cat #11835-030); 5% Charcoal Stripped (Dextran treated) FBS (Omega Scientific, Cat #FB-04); 1% penstrep (Life Technologies, Gibco Cat #: 10378-016)] in Corning 3904 plates. The cells were incubated for a minimum of 3 days. Cells were dosed with PROTACs diluted in 0.01% DMSO and the drug treatment was allowed for 5 hours.
# AR ELISA (Cell Signaling) was performed as follows. 1×Cell Signaling Cell lysis buffer was made (Catalogue #9803; comes with the kit). Media from the treated wells is aspirated, and 100 μL 1×cell lysis buffer/well is added. The cells were placed on a shaker for 10 minutes at 4° C. Twenty microliters of lysate was transferred to 100 μl of Diluent in ELISA plate ([…]-0.075 μg/ml). The lysate-diluent mixture was shaken for 30 minutes at 37° C. Allow mouse AR antibody, anti-mouse antibody, TMB, and STOP solution to come to room temperature. The 1×ELISA buffer included in kit was made and loaded in the reservoir. Media from the plates was discarded, the ELISA plate tapped hard on paper towel, and washed 4×200 μl ELISA wash buffer using a plate washer.
# One-hundred (100) μL/well of mouse AR detection Ab was added; the plates were covered and shaken at 37° C. for 1 hour; media was discarded from the plates, the plates were tapped on a paper towel, washed 4× with 200 μL ELISA wash buffer with a plate washer.
# One-hundred (100) μL/well of anti-mouse—HRP conjugated Ab (comes with the kit) was added; the plates were covered and shaken at 37° C. for 30 minutes; the TMB reagent was allowed to come to room temperature; the media was discard from the plate, the plates were tapped on paper towel, washed 4× with 200 μL of ELISA wash buffer; the plates were tapped the plates on paper towel. One-hundred (100) μL of TMB was added and the plates shaken for 2 minutes—while watching for color development. One-hundred (100) μL Stop solution was added when light blue color developed. Plates were shaken and read at 450 nm.
Compound,DC50,AR Dmax
"CC1(C)[C@H](NC(=O)c2ccc(N3CCC(CN4CCC5(CC4)CC(=O)N(C4CCC(=O)NC4=O)C5=O)CC3)cc2)C(C)(C)[C@H]1Oc1ccc(C#N)c(Cl)c1 (mixture of isomers) [PROTAC-75, rac-N-((1r,3r)-3-(3-chloro-4-cyanophenoxy)-2,2,4,4-tetramethylcyclobutyl)-4-(4-((2-(2,6-dioxopiperidin-3-yl)-1,3-dioxo-2,8-diazaspiro[4.5]decan-8-yl)methyl)piperidin-1-yl)benzamide]",≥ 100 nM,6C (C <= 50)
"CC1(C)[C@H](NC(=O)c2ccc(CCCN3CCC4(CC3)CC(=O)N(C3CCC(=O)NC3=O)C4=O)cc2)C(C)(C)[C@H]1Oc1ccc(C#N)c(Cl)c1 (mixture of isomers) [PROTAC-76, rac-N-((1r,3r)-3-(3-chloro-4-cyanophenoxy)-2,2,4,4-tetramethylcyclobutyl)-4-(3-(2-(2,6-dioxopiperidin-3-yl)-1,3-dioxo-2,8-diazaspiro[4.5]decan-8-yl)propyl)benzamide]",≥ 100 nM,C (C <= 50)
"CC1(C)[C@H](NC(=O)c2ccc(/C=C/CN3CCC4(CC3)CC(=O)N(C3CCC(=O)NC3=O)C4=O)cc2)C(C)(C)[C@H]1Oc1ccc(C#N)c(Cl)c1 (mixture of isomers) [PROTAC-77, rac-N-((1r,3r)-3-(3-chloro-4-cyanophenoxy)-2,2,4,4-tetramethylcyclobutyl)-4-((E)-3-(2-(2,6-dioxopiperidin-3-yl)-1,3-dioxo-2,8-diazaspiro[4.5]decan-8-yl)prop-1-en-1-yl)benzamide]",≥ 100 nM,C (C <= 50)
"CC1(C)[C@H](NC(=O)c2ccc(CCCCN3CCC4(CC3)CC(=O)N(C3CCC(=O)NC3=O)C4=O)cc2)C(C)(C)[C@H]1Oc1ccc(C#N)c(Cl)c1 (mixture of isomers) [PROTAC-78, rac-N-((1r,3r)-3-(3-chloro-4-cyanophenoxy)-2,2,4,4-tetramethylcyclobutyl)-4-(4-(2-(2,6-dioxopiperidin-3-yl)-1,3-dioxo-2,8-diazaspiro[4.5]decan-8-yl)butyl)benzamide]",≥ 100 nM,C (C <= 50)
"CC1(C)[C@H](NC(=O)c2ccc(N3CCN(CCOc4cccc5c4CN(c4ccc(F)cc4F)C5=O)CC3)nc2)C(C)(C)[C@H]1Oc1ccc(C#N)c(Cl)c1 [PROTAC-39, N-((1r,3r)-3-(3-chloro-4-cyanophenoxy)-2,2,4,4-tetramethylcyclobutyl)-6-(4-(2-((2-(2,4-difluorophenyl)-1-oxoisoindolin-4-yl)oxy)ethyl)piperazin-1-yl)nicotinamide]",≥ 100 nM,0C (C <= 50)
"CC1(C)[C@H](NC(=O)c2ccc(N3CCN(CCCCCOc4ccc5c(c4)C(=O)N(c4ccc(F)cc4F)C5=O)CC3)nc2)C(C)(C)[C@H]1Oc1ccc(C#N)c(Cl)c1 [PROTAC-41, N-((1r,3r)-3-(3-chloro-4-cyanophenoxy)-2,2,4,4-tetramethylcyclobutyl)-6-(4-(5-((2-(2,4-difluorophenyl)-1,3-dioxoisoindolin-5-yl)oxy)pentyl)piperazin-1-yl)nicotinamide]",≥ 100 nM,C (C <= 50)
"CC1(C)[C@H](NC(=O)c2ccc(N3CCN(CCCCCOc4ccc5c(c4)C(=O)N(c4ccc(C#N)[nH]c4=O)C5=O)CC3)nc2)C(C)(C)[C@H]1Oc1ccc(C#N)c(Cl)c1 [PROTAC-42, N-((1r,3r)-3-(3-chloro-4-cyanophenoxy)-2,2,4,4-tetramethylcyclobutyl)-6-(4-(5-((2-(6-cyano-2-oxo-1,2-dihydropyridin-3-yl)-1,3-dioxoisoindolin-5-yl)oxy)pentyl)piperazin-1-yl)nicotinamide]",10 to 100 nM,C (C <= 50)
"CC1(C)[C@H](NC(=O)c2ccc(N3CCC(CN4CCN(c5ccc6c(c5)C(=O)N(c5ccc(=O)[nH]c5)C6=O)CC4)CC3)cc2)C(C)(C)[C@H]1Oc1ccc(C#N)c(Cl)c1 [PROTAC-43, N-((1r,3r)-3-(3-chloro-4-cyanophenoxy)-2,2,4,4-tetramethylcyclobutyl)-4-(4-((4-(1,3-dioxo-2-(6-oxo-1,6-dihydropyridin-3-yl)isoindolin-5-yl)piperazin-1-yl)methyl)piperidin-1-yl)benzamide]",≥ 100 nM,C (C <= 50)

# Further lines, with some results ahead:
DC50,Compound,AR Dmax
< 1 nM,"CC1(C)[C@H](NC(=O)c2ccc(N3CCN(CCCCCCOc4cnn(C5CCC(=O)NC5=O)c(=O)c4)CC3)nc2)C(C)(C)[C@H]1Oc1ccc(C#N)c(Cl)c1 (some centres unmarked) [PROTAC-29, N-((1r,3r)-3-(3-chloro-4-cyanophenoxy)-2,2,4,4-tetramethylcyclobutyl)-6-(4-(6-((1-(2,6-dioxopiperidin-3-yl)-6-oxo-1,6-dihydropyridazin-4-yl)oxy)hexyl)piperazin-1-yl)nicotinamide]",B (50 < B <= 75)
≥ 100 nM,"Cc1nc2c(OCCCCCN3CCN(c4ccc(C(=O)N[C@H]5C(C)(C)[C@H](Oc6ccc(C#N)c(Cl)c6)C5(C)C)cn4)CC3)cccc2c(=O)n1C1CCC(=O)NC1=O (some centres unmarked) [PROTAC-30, N-((1r,3r)-3-(3-chloro-4-cyanophenoxy)-2,2,4,4-tetramethylcyclobutyl)-6-(4-(5-((3-(2,6-dioxopiperidin-3-yl)-2-methyl-4-oxo-3,4-dihydroquinazolin-8-yl)oxy)pentyl)piperazin-1-yl)nicotinamide]",C (C <= 50)
1 to 10 nM,"CC1(C)[C@H](NC(=O)c2ccc(N3CCN(CCCCCOc4ccc5c(c4)S(=O)(=O)N(C4CCC(=O)NC4=O)C5=O)CC3)nc2)C(C)(C)[C@H]1Oc1ccc(C#N)c(Cl)c1 (some centres unmarked) [PROTAC-33, N-((1r,3r)-3-(3-chloro-4-cyanophenoxy)-2,2,4,4-tetramethylcyclobutyl)-6-(4-(5-((2-(2,6-dioxopiperidin-3-yl)-1,1-dioxido-3-oxo-2,3-dihydrobenzo[d]isothiazol-6-yl)oxy)pentyl)piperazin-1-yl)nicotinamide]",B (50 < B <= 75)
≥ 100 nM,"CC1(C)[C@H](NC(=O)c2ccc(N3CCN(CCOCCOc4cccc5c4CN(c4ccc(F)cc4F)C5=O)CC3)nc2)C(C)(C)[C@H]1Oc1ccc(C#N)c(Cl)c1 [PROTAC-40, rac-N-((1r,3r)-3-(3-chloro-4-cyanophenoxy)-2,2,4,4-tetramethylcyclobutyl)-6-(4-(2-(2-((2-(2,4-difluorophenyl)-1-oxoisoindolin-4-yl)oxy)ethoxy)ethyl)piperazin-1-yl)nicotinamide]",C (C <= 50)
≥ 100 nM,"CC1(C)[C@H](NC(=O)c2ccc(N3CCC(CN4CCN(c5ccc6c(c5)C(=O)N(c5ccc[nH]c5=O)C6=O)CC4)CC3)cc2)C(C)(C)[C@H]1Oc1ccc(C#N)c(Cl)c1 [PROTAC-44, rac-N-((1r,3r)-3-(3-chloro-4-cyanophenoxy)-2,2,4,4-tetramethylcyclobutyl)-4-(4-((4-(1,3-dioxo-2-(2-oxo-1,2-dihydropyridin-3-yl)isoindolin-5-yl)piperazin-1-yl)methyl)piperidin-1-yl)benzamide]",C (C <= 50)
≥ 100 nM,"CC1(C)[C@H](NC(=O)c2ccc(N3CCC(CN4CCN(c5ccc6c(c5)C(=O)N(c5ccc(O)[nH]c5=O)C6=O)CC4)CC3)cc2)C(C)(C)[C@H]1Oc1ccc(C#N)c(Cl)c1 [PROTAC-45, N-((1r,3r)-3-(3-chloro-4-cyanophenoxy)-2,2,4,4-tetramethylcyclobutyl)-4-(4-((4-(2-(6-hydroxy-2-oxo-1,2-dihydropyridin-3-yl)-1,3-dioxoisoindolin-5-yl)piperazin-1-yl)methyl)piperidin-1-yl)benzamide]",C (C <= 50)
≥ 100 nM,"CC1(C)[C@H](NC(=O)c2ccc(N3CCN(CCOCCOCc4cc5ccccc5c(=O)n4C4CCC(=O)NC4=O)CC3)nc2)C(C)(C)[C@H]1Oc1ccc(C#N)c(Cl)c1 (some centres unmarked) [PROTAC-46, N-((1r,3r)-3-(3-chloro-4-cyanophenoxy)-2,2,4,4-tetramethylcyclobutyl)-6-(4-(2-(2-((2-(2,6-dioxopiperidin-3-yl)-1-oxo-1,2-dihydroisoquinolin-3-yl)methoxy)ethoxy)ethyl)piperazin-1-yl)nicotinamide]",C (C <= 50)
1 to 10 nM,"CC1(C)[C@H](NC(=O)c2ccc(N3CCN(CCCCCOc4ccc5ncc(-n6ccc(=O)[nH]c6=O)cc5c4)CC3)nc2)C(C)(C)[C@H]1Oc1ccc(C#N)c(Cl)c1 [PROTAC-47, N-((1r,3r)-3-(3-chloro-4-cyanophenoxy)-2,2,4,4-tetramethylcyclobutyl)-6-(4-(5-((3-(2,4-dioxo-3,4-dihydropyrimidin-1(2H)-yl)quinolin-6-yl)oxy)pentyl)piperazin-1-yl)nicotinamide]",C (C <= 50)
